ChEMBL document CHEMBL1128941, “Peptidomimetic inhibitors of herpes virus ribonucleotide reductase. Correlation between herpes simplex and varicella zoster virus” (Bioorg Med Chem Lett, 1996)
Starred links: 1 amine or outer side, 2 acyl side, 3 side chain; linkers in the order of their positions; H or OH if unused. Non-standard residues stand in square brackets, D forms with d. Residues, ends and D or L forms follow the SMILES beside them. *: point of attachment. Asp(3,3-(CH2)4) = N[C@H](C(=O)O)C1(C(=O)O)CCCC1; Dibenzylacetyl = O=C(C(Cc1ccccc1)Cc1ccccc1)*; Hydrocinnamoyl = O=C(CCc1ccccc1)*; tBuAla = CC(C)(C)C[C@H](N)C(=O)O; Tle = CC(C)(C)[C@H](N)C(=O)O; NMeV = CN[C@H](C(=O)O)C(C)C; NH(3-pentyl) = CCC(CC)N*; Pyrrolidide = C1CCN(*)C1; CO = O=C([*:1])[*:2]; X1 = CCC(CC)OC(=O)*; X2 = CCC(CC)CC(=O)*

Columns and labels:
[1] = Inhibitory potency against Herpes Simplex virus ribonucleotide reductase; parameters: species or system Herpes simplex virus (type 1 / strain 17)
[2] = Inhibitory potency against Varicella zoster virus ribonucleotide reductase

Compound	IC50 [1] [µM]	IC50 [2] [µM]
H-YAGTVINDL-OH	8	–
CCC(CC)OC(=O)N[C@H](C(=O)N[C@@H](CC(=O)N1CCCC1)C(=O)N[C@@H](CC(=O)O)C(=O)N[C@@H](CC(C)C)C(=O)O)C(C)(C)C (X1-[Tle]D(Pyrrolidide)DL-OH)	0.635	7
CC(C)C[C@H](NC(=O)[C@H](CC(=O)O)NC(=O)[C@H](CC(=O)N1CCCC1)NC(=O)[C@@H](NC(=O)[C@@H](NC(=O)CCc1ccccc1)C(C)C)C(C)C)C(=O)O (Hydrocinnamoyl-VVD(Pyrrolidide)DL-OH)	0.024	0.588
CCC(CC)NC(=O)C[C@H](C(=O)N[C@@H](CC(=O)N1CCCC1)C(=O)N[C@@H](CC(=O)O)C(=O)N[C@@H](CC(C)C)C(=O)O)C(C)(C)C	0.005	3.5
CC(C)C[C@H](NC(=O)[C@H](CC(=O)O)NC(=O)[C@H](CC(N)=O)NC(=O)[C@@H](NC(=O)[C@@H](NC(=O)[C@H](C)NC(=O)CNC(=O)[C@H](C)NC(=O)[C@@H](N)Cc1ccc(O)cc1)C(C)C)C(C)C)C(=O)O	25	–
CC(C)C[C@H](NC(=O)[C@H](CC(=O)O)NC(=O)[C@H](CC(=O)N1CCCC1)NC(=O)[C@@H](NC(=O)[C@@H](NC(=O)CCc1ccccc1)C(C)C)C(C)(C)C)C(=O)O (Hydrocinnamoyl-V[Tle]D(Pyrrolidide)DL-OH)	0.004	0.123

Continued, values first:

IC50 [1] [µM]	IC50 [2] [µM]	Compound
4	15	CC(C)C[C@H](NC(=O)[C@H](CC(=O)O)NC(=O)[C@H](CC(N)=O)NC(=O)[C@@H](NC(=O)[C@@H](NC(=O)CCc1ccccc1)C(C)C)C(C)C)C(=O)O
0.005	9.8	CC(C)[C@H](NC(=O)CCc1ccccc1)C(=O)N[C@H](C(=O)N[C@@H](CC(=O)N1CCCC1)C(=O)N[C@@H](CC(=O)O)C(=O)N[C@@H](CC(C)(C)C)C(=O)O)C(C)C (Hydrocinnamoyl-VVD(Pyrrolidide)D[tBuAla]-OH)
0.003	0.925	CCC(CC)NC(=O)N[C@H](C(=O)N[C@@H](CC(=O)N1CCCC1)C(=O)N[C@@H](CC(=O)O)C(=O)N[C@@H](CC(C)C)C(=O)O)C(C)(C)C ({NH(3-pentyl)-CO}-[Tle]D(Pyrrolidide)DL-OH)
0.0075	0.21	CC(C)C[C@H](NC(=O)[C@H](CC(=O)O)NC(=O)[C@H](CC(=O)N1CCCC1)NC(=O)[C@@H](NC(=O)[C@H](C(C)C)N(C)C(=O)CCc1ccccc1)C(C)C)C(=O)O (Hydrocinnamoyl-[NMeV]VD(Pyrrolidide)DL-OH)
0.0007	0.022	CC(C)C[C@H](NC(=O)[C@H](CC(=O)O)NC(=O)[C@H](CC(=O)N1CCCC1)NC(=O)[C@@H](NC(=O)[C@@H](NC(=O)C(Cc1ccccc1)Cc1ccccc1)C(C)C)C(C)C)C(=O)O (Dibenzylacetyl-VVD(Pyrrolidide)DL-OH)
0.14	–	CCC(CC)CC(=O)N[C@H](C(=O)N[C@@H](CC(=O)N1CCCC1)C(=O)N[C@@H](CC(=O)O)C(=O)N[C@@H](CC(C)C)C(=O)O)C(C)(C)C (X2-[Tle]D(Pyrrolidide)DL-OH)
0.001	0.037	CC(C)C[C@H](NC(=O)[C@@H](NC(=O)[C@H](CC(=O)N1CCCC1)NC(=O)[C@@H](NC(=O)[C@@H](NC(=O)CCc1ccccc1)C(C)C)C(C)C)C1(C(=O)O)CCCC1)C(=O)O (Hydrocinnamoyl-VVD(Pyrrolidide)[Asp(3,3-(CH2)4)]L-OH)
